# Columns and labels:
# PARP = target: T1, PARP (Homo sapiens, UniProt P09874); assay: PARP ELISA (ELISA-based colorimetric PARP/Apoptosis Assay kit, Trevigen); type: biochemical; settings: pIC50=-log10 IC50, IC50 in mol/L; inhibition of PARP catalytic activity
# T1 construct: purchased Trevigen 4684-096-K HT (kit); 4684-096-01 (PARP enzyme)
# Method in brief: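 Quenched after 10 min catalysis by aspiration and four PBS/0.1% Triton X-100 washes. Poly(ADP-ribose) detected with mouse anti-PAR monoclonal antibody, goat anti-mouse IgG-HRP and HRP substrate; colorimetric signal proportional to PARP catalytic activity.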
# Jurkat cell line = assay: PARP cellular chemopotentiation assay (MTS, with/without TMZ); type: cell-based; settings: Chemopotentiation factor: ratio of EC50 values of Jurkat cells co-treated without and with 100 μM TMZ; 96 hours
# Method in brief: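 Jurkat cells, 10,000/well, pre-cultured 24 h, then treated 96 h with serial compound dilutions (0.5% DMSO) with or without 100 μM TMZ. Viability by MTS conversion (OD490), normalized to DMSO controls; EC50 from curve fits, PF50 = EC50 without TMZ / EC50 with TMZ.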
# T1 sequence (P09874 whole entry): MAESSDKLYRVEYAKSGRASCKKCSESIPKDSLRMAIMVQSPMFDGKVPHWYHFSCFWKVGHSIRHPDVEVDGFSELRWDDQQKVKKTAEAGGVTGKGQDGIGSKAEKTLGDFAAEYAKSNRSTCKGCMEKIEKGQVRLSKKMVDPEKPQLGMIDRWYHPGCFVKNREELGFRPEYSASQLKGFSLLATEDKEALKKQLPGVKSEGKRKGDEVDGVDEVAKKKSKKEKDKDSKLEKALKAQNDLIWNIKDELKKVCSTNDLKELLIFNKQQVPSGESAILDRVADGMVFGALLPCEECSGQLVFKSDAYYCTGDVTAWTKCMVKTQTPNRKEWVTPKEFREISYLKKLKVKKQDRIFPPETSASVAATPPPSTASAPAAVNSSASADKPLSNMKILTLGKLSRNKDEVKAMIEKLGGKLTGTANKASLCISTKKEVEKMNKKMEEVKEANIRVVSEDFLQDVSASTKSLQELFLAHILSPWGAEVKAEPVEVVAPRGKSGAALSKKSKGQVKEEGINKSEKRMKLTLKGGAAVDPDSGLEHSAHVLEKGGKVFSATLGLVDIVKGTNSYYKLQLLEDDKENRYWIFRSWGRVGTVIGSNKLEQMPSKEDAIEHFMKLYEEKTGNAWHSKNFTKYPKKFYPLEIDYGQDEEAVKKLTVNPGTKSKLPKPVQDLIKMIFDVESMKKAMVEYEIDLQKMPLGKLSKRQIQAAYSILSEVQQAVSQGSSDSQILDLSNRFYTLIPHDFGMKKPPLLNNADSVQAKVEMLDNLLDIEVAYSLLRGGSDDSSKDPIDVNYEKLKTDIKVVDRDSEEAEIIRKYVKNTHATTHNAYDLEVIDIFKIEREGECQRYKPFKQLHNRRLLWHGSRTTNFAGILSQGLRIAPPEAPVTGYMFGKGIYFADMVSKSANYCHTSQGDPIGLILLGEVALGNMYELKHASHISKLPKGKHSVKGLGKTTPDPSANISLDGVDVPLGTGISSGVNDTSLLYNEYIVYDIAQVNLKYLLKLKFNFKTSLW
IC50 (PARP) [nM],Compound,PF50 (Jurkat cell line)
> 200,"CNC(=O)c1ccc(N2CCN(Cc3cc(Cc4ccccc4)c4c(c3)NC(=O)C(C)O4)CC2)cc1 (stereo not shown) [Compound 353, 4-(4-((8-Benzyl-2-methyl-3-oxo-3,4-dihydro-2H-benzo[b][1,4]oxazin-6-yl)methyl)piperazin-1-yl)-N-methylbenzamide]",1.3
> 200,"CC1Oc2c(Cc3ccccc3)cc(CN3CCN(c4ccc(C(=O)NC5CC5)cc4)CC3)cc2NC1=O (stereo not shown) [Compound 354, 4-(4-((8-Benzyl-2-methyl-3-oxo-3,4-dihydro-2H-benzo[b][1,4]oxazin-6-yl)methyl)piperazin-1-yl)-N-cyclopropylbenzamide]",1.0
> 200,"CCNC(=O)c1ccc(N2CCN(Cc3cc(Cc4ccccc4)c4c(c3)NC(=O)C(C)O4)CC2)cc1 (stereo not shown) [Compound 355, 4-(4-((8-Benzyl-2-methyl-3-oxo-3,4-dihydro-2H-benzo[b][1,4]oxazin-6-yl)methyl)piperazin-1-yl)-N-ethylbenzamide]",1.3
> 200,"CCCc1cc(CN2CCN(c3ccc(C(=O)NC)cc3)CC2)cc2c1OC(C)C(=O)N2 (stereo not shown) [Compound 358, N-Methyl-4-(4-((2-methyl-3-oxo-8-propyl-3,4-dihydro-2H-benzo[b][1,4]oxazin-6-yl)methyl)piperazin-1-yl)benzamide]",>3.0
15.8,"CCNC(=O)c1ccc(N2CCN(Cc3cc(O)c4c(c3)NC(=O)C(C)O4)CC2)cc1 (stereo not shown) [Compound 359, N-Ethyl-4-(4-((8-hydroxy-2-methyl-3-oxo-3,4-dihydro-2H-benzo[b][1,4]oxazin-6-yl)methyl)piperazin-1-yl)benzamide]",>6.0
39.8,"CCNC(=O)c1ccc(N2CCN(Cc3cc4c(c(OC)c3)OC(C)C(=O)N4)CC2)c(F)c1 (stereo not shown) [Compound 360, N-Ethyl-3-fluoro-4-(4-((8-methoxy-2-methyl-3-oxo-3,4-dihydro-2H-benzo[b][1,4]oxazin-6-yl)methyl)piperazin-1-yl)benzamide]",3.1
25.1,"CCNC(=O)c1ccc(N2CCN(Cc3cc4c(c(OC)c3)OC(C)C(=O)N4)CC2)c(Cl)c1 (stereo not shown) [Compound 361, 3-Chloro-N-ethyl-4-(4-((8-methoxy-2-methyl-3-oxo-3,4-dihydro-2H-benzo[b][1,4]oxazin-6-yl)methyl)piperazin-1-yl)benzamide]",>3500

# The next lines start with the compound.
Compound,IC50 (PARP) [nM],PF50 (Jurkat cell line)
"CNC(=O)c1ccc(N2CCN(Cc3cc(F)c4c(c3)NC(=O)C(C)O4)CC2)nc1 (stereo not shown) [Compound 314, 6-(4-((8-Fluoro-2-methyl-3-oxo-3,4-dihydro-2H-benzo[b][1,4]oxazin-6-yl)methyl)piperazin-1-yl)-N-methylnicotinamide]",31.6,1.8
"Cc1cc2c(cc1CN1CC=C(c3ccc(Cl)cc3)CC1)NC(=O)C(C)O2 (stereo not shown) [Compound 321, 6-((4-(4-Chlorophenyl)-5,6-dihydropyridin-1(2H)-yl)methyl)-2,7-dimethyl-2H-benzo[b][1,4]oxazin-3(4H)-one]",2,1.4
"CC1Oc2cc(F)c(CN3CC=C(c4ccc(Cl)cc4)CC3)cc2NC1=O (stereo not shown) [Compound 331, 6-((4-(4-Chlorophenyl)-5,6-dihydropyridin-1(2H)-yl)methyl)-7-fluoro-2-methyl-2H-benzo[b][1,4]oxazin-3(4H)-one]",> 200,1.3
"CNC(=O)c1ccc(N2CCN(Cc3cc4c(cc3F)OC(C)C(=O)N4)CC2)cc1 (stereo not shown) [Compound 335, 4-(4-((7-Fluoro-2-methyl-3-oxo-3,4-dihydro-2H-benzo[b][1,4]oxazin-6-yl)methyl)piperazin-1-yl)-N-methylbenzamide]",63.1,0.3
"CCNC(=O)c1ccc(N2CCN(Cc3cc4c(cc3F)OC(C)C(=O)N4)CC2)cc1 (stereo not shown) [Compound 336, N-Ethyl-4-(4-((7-fluoro-2-methyl-3-oxo-3,4-dihydro-2H-benzo[b][1,4]oxazin-6-yl)methyl)piperazin-1-yl)benzamide]",100,2.1
"CC1Oc2cc(F)c(CN3CCN(c4ccc(C(=O)NC5CC5)cc4)CC3)cc2NC1=O (stereo not shown) [Compound 338, N-Cyclopropyl-4-(4-((7-fluoro-2-methyl-3-oxo-3,4-dihydro-2H-benzo[b][1,4]oxazin-6-yl)methyl)piperazin-1-yl)benzamide]",79.4,0.4
"CC1Oc2cc(F)c(CN3CCN(c4ccc(C#N)cc4)CC3)cc2NC1=O (stereo not shown) [Compound 339, 4-(4-((7-Fluoro-2-methyl-3-oxo-3,4-dihydro-2H-benzo[b][1,4]oxazin-6-yl)methyl)piperazin-1-yl)benzonitrile]",79.4,1.0
"CC1Oc2cc(F)c(CN3CCN(c4ccc(C#N)cn4)CC3)cc2NC1=O (stereo not shown) [Compound 340, 6-(4-((7-Fluoro-2-methyl-3-oxo-3,4-dihydro-2H-benzo[b][1,4]oxazin-6-yl)methyl)piperazin-1-yl)nicotinonitrile]",63.1,0.9
"CC1Oc2ccc(Cn3cc4ccccc4n3)cc2NC1=O (stereo not shown) [Compound 344, 6-((2H-Indazol-2-yl)methyl)-2-methyl-2H-benzo[b][1,4]oxazin-3(4H)-one]",> 200,1.3
"CC1Oc2ccc(Cn3ncc4ccccc43)cc2NC1=O (stereo not shown) [Compound 345, 6-((1H-Indazol-1-yl)methyl)-2-methyl-2H-benzo[b][1,4]oxazin-3(4H)-one]",79.4,1.2
"CCNC(=O)c1ccc(N2CCN(Cc3cc4c(c(C5CC5)c3)OC(C)C(=O)N4)CC2)cc1 (stereo not shown) [Compound 346, 4-(4-((8-Cyclopropyl-2-methyl-3-oxo-3,4-dihydro-2H-benzo[b][1,4]oxazin-6-yl)methyl)piperazin-1-yl)-N-ethylbenzamide]",100,8.6
"CNC(=O)c1ccc(N2CCN(Cc3cc4c(c(C5CC5)c3)OC(C)C(=O)N4)CC2)cc1 (stereo not shown) [Compound 347, 4-(4-((8-Cyclopropyl-2-methyl-3-oxo-3,4-dihydro-2H-benzo[b][1,4]oxazin-6-yl)methyl)piperazin-1-yl)-N-methylbenzamide]",100,10.1
"CC1Oc2c(cc(CN3CCN(c4ccc(C(=O)NC5CC5)cc4)CC3)cc2C2CC2)NC1=O (stereo not shown) [Compound 348, N-Cyclopropyl-4-(4-((8-cyclopropyl-2-methyl-3-oxo-3,4-dihydro-2H-benzo[b][1,4]oxazin-6-yl)methyl)piperazin-1-yl)benzamide]",251,>5
"CNC(=O)c1ccc(N2CCN(Cc3cc4c(c(-c5ccccc5)c3)OC(C)C(=O)N4)CC2)cc1 (stereo not shown) [Compound 350, N-Methyl-4-(4-((2-methyl-3-oxo-8-phenyl-3,4-dihydro-2H-benzo[b][1,4]oxazin-6-yl)methyl)piperazin-1-yl)benzamide]",> 200,2.1
"CC1Oc2c(cc(CN3CCN(c4ccc(C(=O)NC5CC5)cc4)CC3)cc2-c2ccccc2)NC1=O (stereo not shown) [Compound 351, N-Cyclopropyl-4-(4-((2-methyl-3-oxo-8-phenyl-3,4-dihydro-2H-benzo[b][1,4]oxazin-6-yl)methyl)piperazin-1-yl)benzamide]",> 200,1.0
"CC1Oc2c(cc(CN3CCN(c4ccc(C#N)cc4)CC3)cc2C2CC2)NC1=O (stereo not shown) [Compound 352, 4-(4-((8-Cyclopropyl-2-methyl-3-oxo-3,4-dihydro-2H-benzo[b][1,4]oxazin-6-yl)methyl)piperazin-1-yl)benzonitrile]",79.4,6.3
